We go through eight molecules from PubChem BioAssay (NCI).

Common to all, as to assay: growth of human tumour cells (NCI), 48 h
In assay [1] the test system is COLO 205 colon.
The subject of assay [2] is M14 melanoma.
The subject of assay [3] is UACC-62 melanoma.
The test system of assay [4] is MOLT-4 leukemia.
Assay [5] deals with NCI-H23 lung.
For assay [6], the system named is NCI/ADR-RES ovarian.
Assay [7] concerns NCI-H226 lung.
Assay [8] has as its system SNB-19 CNS.
Assay [9] concerns DU-145 prostate.
For assay [10], the system named is EKVX NSCLC.

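48-hour exposure; five concentrations; linearly interpolated endpoints. GI50 = concentration required for 50% inhibition of growth. Definition used: TGI = concentration required for complete inhibition of growth.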 Where only a bound is given, the exact number is not on record here.

`NC(N)=N/N=C(/c1ccccc1)c1ccc(Cl)cc1`: the GI50 is 14.4 µM in assay [1]; 12 µM in [2]; 22.4 µM in [3]; 5.45 µM in assay [4]; 34 µM in assay [5]; 24.4 µM in assay [6]. The GI50 in assay [7] is 29.3 µM; in [8] it was 87.2 µM; in assay [9], 4.89 µM. Further, the TGI in [1] was over 100 µM; in assay [2], 78.4 µM; in assay [3], over 100 µM; in assay [4], over 100 µM; in assay [5] it was over 100 µM; in assay [6], 85.9 µM. Besides, the figures for the TGI in assay [7], in assay [8] and in [9] were over 100 µM, over 100 µM and 24.8 µM, respectively.
`c1ccc2c(-c3nc4ccccc4[nH]3)cccc2c1`: the GI50 was 3.48 µM in assay [1]; 1.99 µM in [2]; 1.99 µM in assay [3]; 2.9 µM in assay [4]; 4.2 µM in [5]; 1.8 µM in [6]. Also, the GI50 was 4.26 µM in [8] and 3.04 µM in assay [9]. Besides, the TGI in assay [1] was 11.8 µM; in assay [2], 12 µM; in [3] it was 27.3 µM; in assay [4], 83.8 µM; in assay [5] it was over 100 µM; in [6], over 100 µM. Moreover, the TGI came out at 40.4 µM in assay [8] and 9.29 µM in [9].
Consider `O[C@@H]1CCCN1Cc1cc2cc3c(cc2c2cc(OCc4ccccc4)ccc12)OCO3`, for which the GI50 in [1] was 1.7 µM; in [2] it was 1.81 µM; in assay [3], 1.97 µM; in assay [4], 3.38 µM; in assay [10], 11.6 µM; in assay [6] it was 6.12 µM. In addition, the GI50 in [7] is 15.7 µM; in assay [8], 6.23 µM; in assay [9], 5.24 µM. For the same molecule, the TGI in [1] stood at 3.46 µM; in assay [2], 3.35 µM; in assay [3], 3.68 µM; in assay [4], 14.1 µM; in assay [10] it was 27.3 µM; in [6], 21.7 µM. Moreover, the figures for the TGI in [7], in [8] and in [9] were 37.7 µM, 21.4 µM and 21.8 µM, respectively.
For `O=C(NCC(=O)N1CC[C@H](NC2CCC(O)(c3ccc(-c4ncccn4)cn3)CC2)C1)c1cccc(C(F)(F)F)c1` (some centres not stated), the GI50 is 30.2 µM in [1]; over 100 µM in assay [3]; 39.8 µM in [4]; 52.1 µM in assay [5]; 52.7 µM in assay [10]; over 100 µM in assay [6]. For the same molecule, the GI50 in assay [7], in [8] and in assay [9] was over 100 µM throughout. Also, the TGI in assay [1], in assay [3], in assay [4], in assay [5], in [10] and in assay [6] was over 100 µM throughout. The TGI in [7], in assay [8] and in assay [9] was over 100 µM throughout.
As for `O=C1/C(=C/c2ccc(Cl)cc2)CN(Cc2cn(CCNc3ccnc4cc(Cl)ccc34)nn2)C/C1=C\c1ccc(Cl)cc1`, the GI50 in assay [1] was 0.354 µM; in assay [2] it was 0.56 µM; in assay [3], 0.528 µM; in assay [4], 0.499 µM; in assay [5], 0.761 µM; in [6], 0.406 µM. Moreover, the GI50 is 0.84 µM in [7], 0.319 µM in assay [8] and 0.426 µM in [9]. In addition, the TGI was 1.07 µM in assay [1]; 2.21 µM in assay [2]; 1.92 µM in assay [3]; over 100 µM in assay [4]; 2.31 µM in [5]; 2.24 µM in [6]. The TGI in assay [7] was determined as 2.69 µM; in assay [8], 1.27 µM; in [9] it was 1.38 µM.
As to `CCCCCCCCCCCCCCCCOC(=O)c1c(C)[nH]c(/C=C2\N=C(c3ccc[nH]3)C=C2OC)c1C`, the GI50 in assay [1] was 3.81 µM; in assay [2] it was 0.152 µM; in assay [3], 0.235 µM; in assay [4], over 100 µM; in assay [5], 1.15 µM; in [6], 0.735 µM. Moreover, the GI50 in assay [7] is 4.54 µM; in [8], 11.8 µM; in assay [9], 0.406 µM. The TGI was over 100 µM in [1]; 0.452 µM in [2]; 0.62 µM in [3]; over 100 µM in [4]; 12.7 µM in assay [5]; 19.9 µM in assay [6]. In addition, the TGI was 15.2 µM in assay [7], 80.3 µM in [8] and over 56.5 µM in assay [9].
`CN1C(=O)c2cc([N+](=O)[O-])ccc2[C@H]2C(=O)c3cc4c(cc3[C@H]21)OCO4`: the GI50 was 0.225 µM in assay [1]; under 0.01 µM in assay [2]; 0.0356 µM in [3]; 0.145 µM in [4]; 0.21 µM in assay [5]; 0.993 µM in assay [10]. Further, the GI50 in assay [6] is 0.0684 µM; in assay [8], 0.22 µM; in assay [9], 0.0506 µM. Besides, the TGI in [1] was over 61.2 µM; in assay [2], 0.037 µM; in assay [3], 0.337 µM; in [4] it was over 100 µM; in [5], 0.796 µM; in assay [10] it was over 24.5 µM. Also, the TGI is 15.2 µM in assay [6], over 28.2 µM in [8] and 14.9 µM in assay [9].
Consider `COc1ccc2c(c1)C(=O)/C(=C/c1ccc([N+](=O)[O-])s1)O2`, for which the GI50 was 0.49 µM in [1]; 0.358 µM in assay [2]; 0.311 µM in assay [3]; 0.867 µM in assay [4]; 0.709 µM in [5]; 0.873 µM in assay [6]. The GI50 is 1.91 µM in assay [7], 0.522 µM in [8] and 1.79 µM in assay [9]. Further, the TGI was 1.68 µM in [1]; 1.31 µM in assay [2]; 1.16 µM in assay [3]; over 33.7 µM in [4]; 3.53 µM in assay [5]; over 100 µM in assay [6]. Further, the TGI is 4.81 µM in assay [7], 2 µM in assay [8] and over 100 µM in assay [9].
